Measurements published in PubChem BioAssay AID1963980 (Molecular Pharmacology Branch, DTP, NCI, 2024).
One block for each compound: values may come before it.

Test system: 475296-252-R-J1-PDC spheroid viability
Test: Anticancer human tumor 475296-252-R-J1-PDC patient-derived rectal carcinoma cell line growth inhibition [PI3K]
Settings: spheroids with HUVEC and MSC; for IC50: curve of first compound; for viability, T/C: stronger effect = lower value
Method in brief: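 Targeted small molecules plus PI3K inhibitors, half-log dose series from Cmax (default top 10 microM), were applied to heterotypic spheroids of cancer cells with HUVEC and MSCs. Viability indicated growth inhibition.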

[1] = second compound 0.00316 µM, first compound 0.0316 µM
[2] = second compound 0.00316 µM, first compound 0.1 µM
[3] = second compound 0.00316 µM, first compound 0.316 µM
[4] = second compound 0.00316 µM, first compound 1 µM
[5] = second compound 0.00316 µM, first compound 3.16 µM
[6] = second compound 0.00316 µM, first compound 10 µM
[7] = second compound 0.01 µM, first compound 0.0316 µM
[8] = second compound 0.01 µM, first compound 0.1 µM
[9] = second compound 0.01 µM, first compound 0.316 µM
[10] = second compound 0.01 µM, first compound 1 µM
[11] = second compound 0.01 µM, first compound 3.16 µM
[12] = second compound 0.01 µM, first compound 10 µM
[13] = second compound 0.0316 µM, first compound 0.0316 µM
[14] = second compound 0.0316 µM, first compound 0.1 µM
[15] = second compound 0.0316 µM, first compound 0.316 µM
[16] = second compound 0.0316 µM, first compound 1 µM
[17] = second compound 0.0316 µM, first compound 3.16 µM
[18] = second compound 0.0316 µM, first compound 10 µM
[19] = second compound 0.1 µM, first compound 0.0316 µM
[20] = second compound 0.1 µM, first compound 0.1 µM
[21] = second compound 0.1 µM, first compound 0.316 µM
[22] = second compound 0.1 µM, first compound 1 µM
[23] = second compound 0.1 µM, first compound 3.16 µM
[24] = second compound 0.1 µM, first compound 10 µM
[25] = second compound 0.316 µM, first compound 0.0316 µM
[26] = second compound 0.316 µM, first compound 0.1 µM
[27] = second compound 0.316 µM, first compound 0.316 µM
[28] = second compound 0.316 µM, first compound 1 µM
[29] = second compound 0.316 µM, first compound 3.16 µM
[30] = second compound 0.316 µM, first compound 10 µM
[31] = second compound 1 µM, first compound 0.0316 µM
[32] = second compound 1 µM, first compound 0.1 µM
[33] = second compound 1 µM, first compound 0.316 µM
[34] = second compound 1 µM, first compound 1 µM
[35] = second compound 1 µM, first compound 3.16 µM
[36] = second compound 1 µM, first compound 10 µM
[37] = second compound 0.00316 µM, first compound 0.00316 µM
[38] = second compound 0.00316 µM, first compound 0.01 µM
[39] = second compound 0.01 µM, first compound 0.00316 µM
[40] = second compound 0.01 µM, first compound 0.01 µM
[41] = second compound 0.0316 µM, first compound 0.00316 µM
[42] = second compound 0.0316 µM, first compound 0.01 µM
[43] = second compound 0.1 µM, first compound 0.00316 µM
[44] = second compound 0.1 µM, first compound 0.01 µM
[45] = second compound 0.316 µM, first compound 0.00316 µM
[46] = second compound 0.316 µM, first compound 0.01 µM
[47] = second compound 1 µM, first compound 0.00316 µM
[48] = second compound 1 µM, first compound 0.01 µM
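Further: spheroids exposed to agents for seven days before readout.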

- IC50 (second compound 0.00316 µM): > 10 µM
- IC50 (second compound 0.01 µM): > 10 µM
- IC50 (second compound 0.0316 µM): > 10 µM
- IC50 (second compound 0.1 µM): > 10 µM
- IC50 (second compound 0.316 µM): > 10 µM
- IC50 (second compound 1 µM): > 10 µM
Compound: CC(C)NCC(C(=O)N1CCN(c2ncnc3c2C(C)CC3O)CC1)c1ccc(Cl)cc1 (stereo not drawn) + CC(Nc1ccc2c(c1)OCCn1cc(N3C(=O)OCC3C(F)F)nc1-2)C(N)=O
- viability, T/C [1]: 85.7%
- viability, T/C [2]: 86.5%
- viability, T/C [3]: 95.3%
- viability, T/C [4]: 75.7%
- viability, T/C [5]: 67.6%
- viability, T/C [6]: 59.3%
- viability, T/C [7]: 82.7%
- viability, T/C [8]: 78.5%
- viability, T/C [9]: 88.3%
- viability, T/C [10]: 67.6%
- viability, T/C [11]: 65.3%
- viability, T/C [12]: 67.5%
- viability, T/C [13]: 92.7%
- viability, T/C [14]: 94.3%
- viability, T/C [15]: 91.4%
- viability, T/C [16]: 95.4%
- viability, T/C [17]: 63.5%
- viability, T/C [18]: 62.4%
- viability, T/C [19]: 84.2%
- viability, T/C [20]: 86.4%
- viability, T/C [21]: 90.5%
- viability, T/C [22]: 92.5%
- viability, T/C [23]: 78.4%
- viability, T/C [24]: 57.8%
- viability, T/C [25]: 84.9%
- viability, T/C [26]: 80%
- viability, T/C [27]: 84.9%
- viability, T/C [28]: 82.6%
- viability, T/C [29]: 87.4%
- viability, T/C [30]: 66.2%
- viability, T/C [31]: 93.5%
- viability, T/C [32]: 86.2%
- viability, T/C [33]: 83.4%
- viability, T/C [34]: 77.8%
- viability, T/C [35]: 77%
- viability, T/C [36]: 67.8%

- IC50 (second compound 0.00316 µM): > 1 µM
- IC50 (second compound 0.01 µM): > 1 µM
- IC50 (second compound 0.0316 µM): > 1 µM
- IC50 (second compound 0.1 µM): > 1 µM
- IC50 (second compound 0.316 µM): > 1 µM
- IC50 (second compound 1 µM): > 1 µM
Compound: CCN1CCN(Cc2ccc(Nc3ncc(F)c(-c4cc(F)c5nc(C)n(C(C)C)c5c4)n3)nc2)CC1 + CC(Nc1ccc2c(c1)OCCn1cc(N3C(=O)OCC3C(F)F)nc1-2)C(N)=O
- viability, T/C [37]: 97.2%
- viability, T/C [38]: 82.2%
- viability, T/C [1]: 94%
- viability, T/C [2]: 86.2%
- viability, T/C [3]: 101%
- viability, T/C [4]: 89.3%
- viability, T/C [39]: 94.1%
- viability, T/C [40]: 87.8%
- viability, T/C [7]: 95.6%
- viability, T/C [8]: 85.1%
- viability, T/C [9]: 89.5%
- viability, T/C [10]: 87.9%
- viability, T/C [41]: 95.3%
- viability, T/C [42]: 92.3%
- viability, T/C [13]: 86.7%
- viability, T/C [14]: 99.3%
- viability, T/C [15]: 87.6%
- viability, T/C [16]: 81.8%
- viability, T/C [43]: 81.3%
- viability, T/C [44]: 111%
- viability, T/C [19]: 86.6%
- viability, T/C [20]: 86%
- viability, T/C [21]: 94.3%
- viability, T/C [22]: 71.8%
- viability, T/C [45]: 85%
- viability, T/C [46]: 96.1%
- viability, T/C [25]: 90.6%
- viability, T/C [26]: 86.9%
- viability, T/C [27]: 85%
- viability, T/C [28]: 71.2%
- viability, T/C [47]: 83.3%
- viability, T/C [48]: 75.5%
- viability, T/C [31]: 80.5%
- viability, T/C [32]: 76.9%
- viability, T/C [33]: 79.1%
- viability, T/C [34]: 64.2%

- IC50 (second compound 0.00316 µM): > 10 µM
- IC50 (second compound 0.01 µM): > 10 µM
- IC50 (second compound 0.0316 µM): > 10 µM
- IC50 (second compound 0.1 µM): > 10 µM
- IC50 (second compound 0.316 µM): > 10 µM
- IC50 (second compound 1 µM): 5.46 µM
Compound: Cn1ncc(Cl)c1-c1cc(C(=O)NC(CN)Cc2cccc(F)c2)sc1Cl (stereo not drawn) + CC(Nc1ccc2c(c1)OCCn1cc(N3C(=O)OCC3C(F)F)nc1-2)C(N)=O
- viability, T/C [1]: 87.7%
- viability, T/C [2]: 68.7%
- viability, T/C [3]: 76.2%
- viability, T/C [4]: 63.4%
- viability, T/C [5]: 65%
- viability, T/C [6]: 67.6%
- viability, T/C [7]: 105%
- viability, T/C [8]: 78.6%
- viability, T/C [9]: 74.1%
- viability, T/C [10]: 73%
- viability, T/C [11]: 73.8%
- viability, T/C [12]: 70.5%
- viability, T/C [13]: 92.6%
- viability, T/C [14]: 88.1%
- viability, T/C [15]: 63.7%
- viability, T/C [16]: 67.4%
- viability, T/C [17]: 52.8%
- viability, T/C [18]: 60.5%
- viability, T/C [19]: 90.7%
- viability, T/C [20]: 104%
- viability, T/C [21]: 86.1%
- viability, T/C [22]: 69.3%
- viability, T/C [23]: 59.4%
- viability, T/C [24]: 52.9%
- viability, T/C [25]: 90.7%
- viability, T/C [26]: 94.3%
- viability, T/C [27]: 85.7%
- viability, T/C [28]: 69.5%
- viability, T/C [29]: 72.8%
- viability, T/C [30]: 51.5%
- viability, T/C [31]: 92.3%
- viability, T/C [32]: 79%
- viability, T/C [33]: 84.1%
- viability, T/C [34]: 76.1%
- viability, T/C [35]: 62%
- viability, T/C [36]: 36.6%

- IC50 (second compound 0.00316 µM): > 0.1 µM
- IC50 (second compound 0.01 µM): > 0.1 µM
- IC50 (second compound 0.0316 µM): > 0.1 µM
- IC50 (second compound 0.1 µM): > 0.1 µM
- IC50 (second compound 0.316 µM): > 0.1 µM
- IC50 (second compound 1 µM): > 0.1 µM
Compound: Cn1ncnc1[C@H]1c2n[nH]c(=O)c3cc(F)cc(c23)N[C@@H]1c1ccc(F)cc1 + CC(Nc1ccc2c(c1)OCCn1cc(N3C(=O)OCC3C(F)F)nc1-2)C(N)=O
- viability, T/C (second compound 0.00316 µM, first compound 0.000316 µM): 88.1%
- viability, T/C (second compound 0.00316 µM, first compound 0.001 µM): 84.3%
- viability, T/C [37]: 94.8%
- viability, T/C [38]: 93.2%
- viability, T/C [1]: 97.2%
- viability, T/C [2]: 90.1%
- viability, T/C (second compound 0.01 µM, first compound 0.000316 µM): 98.4%
- viability, T/C (second compound 0.01 µM, first compound 0.001 µM): 82.9%
- viability, T/C [39]: 89.2%
- viability, T/C [40]: 95.1%
- viability, T/C [7]: 92.8%
- viability, T/C [8]: 92%
- viability, T/C (second compound 0.0316 µM, first compound 0.000316 µM): 86.1%
- viability, T/C (second compound 0.0316 µM, first compound 0.001 µM): 104%
- viability, T/C [41]: 88.8%
- viability, T/C [42]: 87.4%
- viability, T/C [13]: 88%
- viability, T/C [14]: 96.6%
- viability, T/C (second compound 0.1 µM, first compound 0.000316 µM): 92.4%
- viability, T/C (second compound 0.1 µM, first compound 0.001 µM): 101%
- viability, T/C [43]: 93.6%
- viability, T/C [44]: 92.6%
- viability, T/C [19]: 89.7%
- viability, T/C [20]: 97.9%
- viability, T/C (second compound 0.316 µM, first compound 0.000316 µM): 81.8%
- viability, T/C (second compound 0.316 µM, first compound 0.001 µM): 83.4%
- viability, T/C [45]: 86.1%
- viability, T/C [46]: 84.6%
- viability, T/C [25]: 89.8%
- viability, T/C [26]: 81.6%
- viability, T/C (second compound 1 µM, first compound 0.000316 µM): 84.5%
- viability, T/C (second compound 1 µM, first compound 0.001 µM): 71.6%
- viability, T/C [47]: 87%
- viability, T/C [48]: 89.1%
- viability, T/C [31]: 85%
- viability, T/C [32]: 79.6%
